Data from ChEMBL document CHEMBL4507278 (2021).

Legend:
[1] = molecular target: Phosphatidylinositol 3-kinase C2 domain-containing subunit gamma (Homo sapiens) (UniProt O75747); settings: Compound concentration 1000.0 nM
[2] = molecular target: Dual specificity protein kinase CLK3 (Homo sapiens) (UniProt P49761); settings: Compound concentration 1000.0 nM
[3] = molecular target: Mitogen-activated protein kinase 7 (Homo sapiens) (UniProt Q13164); settings: Compound concentration 1000.0 nM
[4] = molecular target: Cyclin-dependent kinase 11A (Homo sapiens) (UniProt Q9UQ88); settings: Compound concentration 1000.0 nM
[5] = molecular target: Insulin-like growth factor 1 receptor (Homo sapiens) (UniProt P08069); settings: Compound concentration 1000.0 nM
[6] = molecular target: Mitotic checkpoint serine/threonine-protein kinase BUB1 (Homo sapiens) (UniProt O43683); settings: Compound concentration 1000.0 nM
[7] = molecular target: Serine/threonine-protein kinase MARK1 (Homo sapiens) (UniProt Q9P0L2); settings: Compound concentration 1000.0 nM
[8] = molecular target: Beta-adrenergic receptor kinase 1 (Homo sapiens) (UniProt P25098); settings: Compound concentration 1000.0 nM
Sequence of Beta-adrenergic receptor kinase 1 (Homo sapiens) (P25098 whole entry): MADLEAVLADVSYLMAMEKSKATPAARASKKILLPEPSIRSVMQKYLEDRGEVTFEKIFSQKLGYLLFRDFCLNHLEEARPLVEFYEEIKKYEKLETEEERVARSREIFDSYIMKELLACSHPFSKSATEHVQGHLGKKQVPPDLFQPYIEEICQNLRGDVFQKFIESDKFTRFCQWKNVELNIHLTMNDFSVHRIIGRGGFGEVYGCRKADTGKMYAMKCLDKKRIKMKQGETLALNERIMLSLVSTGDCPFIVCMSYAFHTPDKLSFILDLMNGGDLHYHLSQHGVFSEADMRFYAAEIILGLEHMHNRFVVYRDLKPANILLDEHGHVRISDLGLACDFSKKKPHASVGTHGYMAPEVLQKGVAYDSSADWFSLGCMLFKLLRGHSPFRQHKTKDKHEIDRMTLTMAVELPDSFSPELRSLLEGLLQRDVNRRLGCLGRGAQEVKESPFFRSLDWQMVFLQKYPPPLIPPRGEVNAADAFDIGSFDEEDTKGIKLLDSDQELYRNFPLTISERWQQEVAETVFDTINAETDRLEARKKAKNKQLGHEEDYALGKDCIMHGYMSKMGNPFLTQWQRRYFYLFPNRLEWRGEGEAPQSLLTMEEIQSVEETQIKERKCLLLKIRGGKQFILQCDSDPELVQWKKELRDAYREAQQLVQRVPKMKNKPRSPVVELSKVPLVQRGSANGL

[9] = tested on: Tyrosine-protein kinase ABL1 (Homo sapiens), P00519 [E255K]; settings: Compound concentration 1000.0 nM
[10] = molecular target: Rhodopsin kinase GRK7 (Homo sapiens) (UniProt Q8WTQ7); settings: Compound concentration 1000.0 nM
[11] = molecular target: Ribosomal protein S6 kinase alpha-2 (Homo sapiens) (UniProt Q15349); settings: Compound concentration 1000.0 nM
[12] = molecular target: MAP/microtubule affinity-regulating kinase 4 (Homo sapiens) (UniProt Q96L34); settings: Compound concentration 1000.0 nM
Sequence of MAP/microtubule affinity-regulating kinase 4 (Homo sapiens) (Q96L34 whole entry): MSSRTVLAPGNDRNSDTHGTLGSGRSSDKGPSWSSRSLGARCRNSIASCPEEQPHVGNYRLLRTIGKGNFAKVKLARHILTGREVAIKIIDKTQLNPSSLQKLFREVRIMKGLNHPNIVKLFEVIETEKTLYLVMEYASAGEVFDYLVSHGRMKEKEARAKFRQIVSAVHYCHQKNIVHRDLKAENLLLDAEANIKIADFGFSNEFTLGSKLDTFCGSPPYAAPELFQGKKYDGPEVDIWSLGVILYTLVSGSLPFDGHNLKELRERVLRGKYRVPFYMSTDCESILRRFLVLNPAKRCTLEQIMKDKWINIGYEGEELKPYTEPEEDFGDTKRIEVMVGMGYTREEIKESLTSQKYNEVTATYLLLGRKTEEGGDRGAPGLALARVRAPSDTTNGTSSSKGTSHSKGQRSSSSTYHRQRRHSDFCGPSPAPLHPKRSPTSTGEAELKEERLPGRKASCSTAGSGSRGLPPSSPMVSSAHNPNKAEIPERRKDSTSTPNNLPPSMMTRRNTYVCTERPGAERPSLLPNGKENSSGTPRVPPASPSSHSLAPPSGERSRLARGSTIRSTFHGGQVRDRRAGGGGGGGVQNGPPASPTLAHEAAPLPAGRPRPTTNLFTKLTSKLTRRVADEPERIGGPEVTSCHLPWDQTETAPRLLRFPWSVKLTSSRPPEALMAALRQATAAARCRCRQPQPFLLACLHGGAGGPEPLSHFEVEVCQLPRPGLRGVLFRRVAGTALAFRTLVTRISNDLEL

[13] = molecular target: SNF-related serine/threonine-protein kinase (Homo sapiens) (UniProt Q9NRH2); settings: Compound concentration 1000.0 nM
[14] = molecular target: Calcium/calmodulin-dependent protein kinase type II subunit alpha (Homo sapiens) (UniProt Q9UQM7); settings: Compound concentration 1000.0 nM
Sequence of Calcium/calmodulin-dependent protein kinase type II subunit alpha (Homo sapiens) (Q9UQM7 whole entry): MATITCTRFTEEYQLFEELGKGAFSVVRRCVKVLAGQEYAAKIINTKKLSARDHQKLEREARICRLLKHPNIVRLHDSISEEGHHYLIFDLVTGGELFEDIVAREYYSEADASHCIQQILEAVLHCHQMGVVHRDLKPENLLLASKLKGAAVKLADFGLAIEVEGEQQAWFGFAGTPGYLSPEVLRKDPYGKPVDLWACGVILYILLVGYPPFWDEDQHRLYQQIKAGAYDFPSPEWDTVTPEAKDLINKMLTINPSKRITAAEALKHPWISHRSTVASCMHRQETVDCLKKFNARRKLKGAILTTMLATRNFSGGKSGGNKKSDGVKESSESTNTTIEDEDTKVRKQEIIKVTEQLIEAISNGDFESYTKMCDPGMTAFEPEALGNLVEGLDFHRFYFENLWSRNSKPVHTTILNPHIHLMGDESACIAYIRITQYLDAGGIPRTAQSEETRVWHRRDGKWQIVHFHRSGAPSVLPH

[15] = molecular target: Cyclin-dependent kinase 2 homolog (Plasmodium falciparum (isolate 3D7)) (UniProt P61075); settings: Compound concentration 1000.0 nM
[16] = molecular target: NUAK family SNF1-like kinase 2 (Homo sapiens) (UniProt Q9H093); settings: Compound concentration 1000.0 nM
[17] = molecular target: Phosphorylase b kinase regulatory subunit alpha, liver isoform (Homo sapiens) (UniProt P46019); settings: Compound concentration 1000.0 nM
[18] = molecular target: Serine/threonine-protein kinase PRP4 homolog (Homo sapiens) (UniProt Q13523); settings: Compound concentration 1000.0 nM
[19] = molecular target: Tyrosine-protein kinase ZAP-70 (Homo sapiens) (UniProt P43403); settings: Compound concentration 1000.0 nM
[20] = tested on: eIF-2-alpha kinase GCN2 (Homo sapiens), Q9P2K8 [S808G]; settings: Compound concentration 1000.0 nM
[21] = molecular target: Ribosomal protein S6 kinase alpha-6 (Homo sapiens) (UniProt Q9UK32); settings: Compound concentration 1000.0 nM
Sequence of Ribosomal protein S6 kinase alpha-6 (Homo sapiens) (Q9UK32 whole entry): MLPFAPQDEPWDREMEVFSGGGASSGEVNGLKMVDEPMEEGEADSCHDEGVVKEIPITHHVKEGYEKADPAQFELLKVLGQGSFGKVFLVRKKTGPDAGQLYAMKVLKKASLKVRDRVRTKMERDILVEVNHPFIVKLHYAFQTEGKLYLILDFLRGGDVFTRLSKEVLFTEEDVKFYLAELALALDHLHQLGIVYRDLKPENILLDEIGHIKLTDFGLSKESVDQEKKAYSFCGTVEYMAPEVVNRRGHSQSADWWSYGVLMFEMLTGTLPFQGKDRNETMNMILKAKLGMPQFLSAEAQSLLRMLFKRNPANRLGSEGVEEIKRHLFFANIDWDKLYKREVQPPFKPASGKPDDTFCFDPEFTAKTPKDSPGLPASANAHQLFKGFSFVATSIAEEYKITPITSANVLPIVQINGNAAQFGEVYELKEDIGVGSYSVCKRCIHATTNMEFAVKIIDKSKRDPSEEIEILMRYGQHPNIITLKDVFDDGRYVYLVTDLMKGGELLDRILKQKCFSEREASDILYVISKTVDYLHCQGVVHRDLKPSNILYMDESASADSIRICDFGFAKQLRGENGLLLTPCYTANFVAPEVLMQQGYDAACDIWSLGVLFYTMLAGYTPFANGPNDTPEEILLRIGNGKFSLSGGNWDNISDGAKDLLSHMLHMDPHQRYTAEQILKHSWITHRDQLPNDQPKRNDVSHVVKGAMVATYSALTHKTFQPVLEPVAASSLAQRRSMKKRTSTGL

[22] = molecular target: Testis-specific serine/threonine-protein kinase 1 (Homo sapiens) (UniProt Q9BXA7); settings: Compound concentration 1000.0 nM
[23] = molecular target: Serine/threonine-protein kinase WNK2 (Homo sapiens) (UniProt Q9Y3S1); settings: Compound concentration 1000.0 nM
[24] = tested on: Receptor-type tyrosine-protein kinase FLT3 (Homo sapiens), P36888 [N841I]; settings: Compound concentration 1000.0 nM
[25] = molecular target: 5-hydroxytryptamine receptor 2A (Homo sapiens) (UniProt P28223); settings: Compound concentration 10.0 uM
[26] = molecular target: Receptor tyrosine-protein kinase erbB-3 (Homo sapiens) (UniProt P21860); settings: Compound concentration 1000.0 nM
[27] = molecular target: Serine/threonine-protein kinase TNNI3K (Homo sapiens) (UniProt Q59H18); settings: Compound concentration 1000.0 nM
[28] = tested on: Epidermal growth factor receptor (Homo sapiens), P00533 [L858R]; settings: Compound concentration 1000.0 nM
[29] = molecular target: 5'-AMP-activated protein kinase catalytic subunit alpha-2 (Homo sapiens) (UniProt P54646); settings: Compound concentration 1000.0 nM
[30] = molecular target: Receptor tyrosine-protein kinase erbB-2 (Homo sapiens) (UniProt P04626); settings: Compound concentration 1000.0 nM
[31] = molecular target: Serine/threonine-protein kinase D1 (Homo sapiens) (UniProt Q15139); settings: Compound concentration 1000.0 nM
[32] = molecular target: Phosphatidylinositol 4,5-bisphosphate 3-kinase catalytic subunit alpha isoform (Homo sapiens) (UniProt P42336); settings: Compound concentration 1000.0 nM
[33] = molecular target: Serine/threonine-protein kinase Sgk3 (Homo sapiens) (UniProt Q96BR1); settings: Compound concentration 1000.0 nM
[34] = molecular target: T1, 5-hydroxytryptamine receptor 3A (Homo sapiens) (UniProt P46098); settings: Compound concentration 10.0 uM
T1 sequence (whole entry): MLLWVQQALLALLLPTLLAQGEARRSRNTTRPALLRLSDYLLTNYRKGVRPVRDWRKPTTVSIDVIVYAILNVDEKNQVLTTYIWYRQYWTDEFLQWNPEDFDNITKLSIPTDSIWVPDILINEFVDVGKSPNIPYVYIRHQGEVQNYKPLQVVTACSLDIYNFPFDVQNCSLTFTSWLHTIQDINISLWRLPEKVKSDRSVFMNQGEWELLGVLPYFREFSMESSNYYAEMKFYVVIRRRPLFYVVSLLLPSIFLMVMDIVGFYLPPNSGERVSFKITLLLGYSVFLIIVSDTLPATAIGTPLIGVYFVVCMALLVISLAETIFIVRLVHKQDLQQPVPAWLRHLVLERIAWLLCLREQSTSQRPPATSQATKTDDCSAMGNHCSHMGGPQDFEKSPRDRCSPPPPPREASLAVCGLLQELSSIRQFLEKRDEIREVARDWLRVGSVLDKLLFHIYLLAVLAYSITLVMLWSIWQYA

[35] = molecular target: Mitogen-activated protein kinase 11 (Homo sapiens) (UniProt Q15759); settings: Compound concentration 1000.0 nM
Sequence of Mitogen-activated protein kinase 11 (Homo sapiens) (Q15759 whole entry): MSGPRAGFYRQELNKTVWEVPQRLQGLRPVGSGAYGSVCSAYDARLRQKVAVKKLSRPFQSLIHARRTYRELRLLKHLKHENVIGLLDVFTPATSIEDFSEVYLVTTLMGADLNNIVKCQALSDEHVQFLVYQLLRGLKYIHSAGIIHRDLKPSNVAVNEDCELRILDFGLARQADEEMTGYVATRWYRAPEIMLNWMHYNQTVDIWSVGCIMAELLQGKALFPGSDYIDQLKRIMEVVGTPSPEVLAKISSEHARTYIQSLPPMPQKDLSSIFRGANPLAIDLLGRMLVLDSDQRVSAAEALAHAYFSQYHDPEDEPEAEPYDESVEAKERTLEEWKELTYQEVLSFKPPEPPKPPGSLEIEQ

[36] = tested on: Tyrosine-protein kinase ABL1 (Homo sapiens), P00519 [F317L]; settings: Compound concentration 1000.0 nM
[37] = molecular target: Macrophage colony-stimulating factor 1 receptor (Homo sapiens) (UniProt P07333); settings: Compound concentration 1000.0 nM
[38] = molecular target: Transient receptor potential cation channel subfamily M member 6 (Homo sapiens) (UniProt Q9BX84); settings: Compound concentration 1000.0 nM

Sequence of Phosphatidylinositol 3-kinase C2 domain-containing subunit gamma (Homo sapiens) (O75747 whole entry, the tested form may be a part): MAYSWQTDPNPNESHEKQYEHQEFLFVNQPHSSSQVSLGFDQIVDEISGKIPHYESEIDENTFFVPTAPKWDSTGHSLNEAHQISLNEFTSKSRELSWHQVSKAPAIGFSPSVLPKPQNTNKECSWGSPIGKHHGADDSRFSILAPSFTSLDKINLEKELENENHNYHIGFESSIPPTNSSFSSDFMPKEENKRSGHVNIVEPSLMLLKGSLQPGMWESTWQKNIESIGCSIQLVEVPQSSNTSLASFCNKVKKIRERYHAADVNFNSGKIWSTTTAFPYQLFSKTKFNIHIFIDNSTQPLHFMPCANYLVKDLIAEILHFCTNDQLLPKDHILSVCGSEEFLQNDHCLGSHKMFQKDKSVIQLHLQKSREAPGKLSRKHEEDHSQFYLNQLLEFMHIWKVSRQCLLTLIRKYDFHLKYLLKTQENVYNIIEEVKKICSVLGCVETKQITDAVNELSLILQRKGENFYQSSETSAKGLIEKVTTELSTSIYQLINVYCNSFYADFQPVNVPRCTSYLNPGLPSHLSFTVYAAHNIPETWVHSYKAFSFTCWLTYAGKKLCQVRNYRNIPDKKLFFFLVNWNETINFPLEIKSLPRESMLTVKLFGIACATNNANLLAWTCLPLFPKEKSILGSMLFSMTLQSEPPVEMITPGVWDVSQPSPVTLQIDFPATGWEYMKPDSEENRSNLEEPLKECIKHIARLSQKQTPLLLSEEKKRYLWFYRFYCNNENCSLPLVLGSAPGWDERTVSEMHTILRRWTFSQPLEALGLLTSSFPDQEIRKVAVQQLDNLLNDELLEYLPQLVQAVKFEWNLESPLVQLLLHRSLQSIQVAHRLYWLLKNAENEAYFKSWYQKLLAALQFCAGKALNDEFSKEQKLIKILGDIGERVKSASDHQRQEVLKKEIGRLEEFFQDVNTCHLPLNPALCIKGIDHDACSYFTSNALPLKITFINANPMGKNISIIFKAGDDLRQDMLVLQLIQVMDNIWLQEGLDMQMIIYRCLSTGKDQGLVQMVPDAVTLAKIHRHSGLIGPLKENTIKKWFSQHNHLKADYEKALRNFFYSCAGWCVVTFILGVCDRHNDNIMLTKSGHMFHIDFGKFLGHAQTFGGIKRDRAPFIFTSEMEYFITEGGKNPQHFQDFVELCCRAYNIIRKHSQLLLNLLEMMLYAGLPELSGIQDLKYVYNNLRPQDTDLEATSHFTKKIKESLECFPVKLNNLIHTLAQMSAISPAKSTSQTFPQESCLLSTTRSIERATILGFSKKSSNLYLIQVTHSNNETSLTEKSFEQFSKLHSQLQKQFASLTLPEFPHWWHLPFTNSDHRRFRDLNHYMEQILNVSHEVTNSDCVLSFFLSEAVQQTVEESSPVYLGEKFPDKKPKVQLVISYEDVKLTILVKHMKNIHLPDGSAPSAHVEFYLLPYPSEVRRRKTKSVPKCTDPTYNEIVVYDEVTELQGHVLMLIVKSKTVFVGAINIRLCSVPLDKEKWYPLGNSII
Sequence of Dual specificity protein kinase CLK3 (Homo sapiens) (P49761 whole entry, looked up): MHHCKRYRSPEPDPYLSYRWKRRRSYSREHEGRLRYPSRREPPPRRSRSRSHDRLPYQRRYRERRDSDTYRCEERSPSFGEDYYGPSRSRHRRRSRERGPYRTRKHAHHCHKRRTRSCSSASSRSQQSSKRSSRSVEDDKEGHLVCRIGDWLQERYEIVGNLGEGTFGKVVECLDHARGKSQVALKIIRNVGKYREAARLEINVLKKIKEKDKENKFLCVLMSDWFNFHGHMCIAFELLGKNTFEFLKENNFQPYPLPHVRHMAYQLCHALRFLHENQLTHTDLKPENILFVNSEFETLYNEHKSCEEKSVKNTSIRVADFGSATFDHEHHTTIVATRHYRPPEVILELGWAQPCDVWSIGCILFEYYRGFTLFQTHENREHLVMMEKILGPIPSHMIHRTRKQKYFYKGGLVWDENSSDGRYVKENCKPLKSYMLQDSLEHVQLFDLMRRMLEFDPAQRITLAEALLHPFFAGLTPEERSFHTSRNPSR

Row | Structure (SMILES) | residual activity [1] | residual activity [2] | residual activity [3] | residual activity [4] | residual activity [5] | residual activity [6] | residual activity [7] | residual activity [8] | residual activity [9] | residual activity [10] | residual activity [11] | residual activity [12] | residual activity [13] | residual activity [14] | residual activity [15] | residual activity [16] | residual activity [17] | residual activity [18] | residual activity [19] | residual activity [20] | other results
1 | CS(=O)(=O)NCC[C@H](NC(=O)c1cncc2c1cnn2-c1ccc(F)cc1)c1ccnc(S(C)(=O)=O)c1 [BI 9307] | 86% | 99% | 100% | 100% | 100% | 100% | 92% | 100% | 93% | 100% | 100% | 78% | 100% | 100% | 100% | 100% | 100% | 69% | 80% | 100% | residual activity [21]: 99%; residual activity [22]: 99%; residual activity [23]: 100%; residual activity [24]: 91%; inhibition [25]: 11.8%; residual activity [26]: 100%; residual activity [27]: 100%; residual activity [28]: 83%; residual activity [29]: 97%; residual activity [30]: 100%; residual activity [31]: 92%; residual activity [32]: 83%; residual activity [33]: 100%; inhibition [34]: 10.2%; residual activity [35]: 100%; residual activity [36]: 100%; residual activity [37]: 100%; residual activity [38]: 100%
2 | CS(=O)(=O)c1cc(C2(NC(=O)c3cncc4c3cnn4-c3ccc(F)cc3)CC2)ccn1 [BI 639667] | 93% | 86% | 75% | 99% | 100% | 85% | 100% | 48% | 100% | 96% | 88% | 100% | 88% | 100% | 100% | 100% | 100% | 100% | 71% | 91% | residual activity [21]: 97%; residual activity [22]: 63%; residual activity [23]: 75%; residual activity [24]: 100%; inhibition [25]: 20.4%; residual activity [26]: 100%; residual activity [27]: 64%; residual activity [28]: 100%; residual activity [29]: 100%; residual activity [30]: 100%; residual activity [31]: 100%; residual activity [32]: 100%; residual activity [33]: 100%; inhibition [34]: 12.9%; residual activity [35]: 100%; residual activity [36]: 100%; residual activity [37]: 79%; residual activity [38]: 91%
